Test results as given in paper PMC11172460 (International Journal of Molecular Sciences, 2024).

Columns and labels:
[1] = tested on: differentiated N2a cells; assay: MTT assay of H2O2-altered viability (neuroprotection); assay type: cell-based, mouse; details: then 100 µM H2O2 for 24 h
Method: (§1) N2a cells were seeded on T75 flasks and grown in Dulbecco’s Modified Eagle Medium (DMEM) containing Glutamax, supplemented with 100 μg/mL streptomycin, 100 IU/mL penicillin, and 10% fetal bovine serum (FBS) in a humidified 5% CO2 atmosphere at 37 °C. After two passages by trypsinization, cells were seeded at a density of 5 × 10^3 cells/well in 12-well plates with 2 mL of DMEM or at a density of 5 × 10^2 cells/well in 96-well plates with 0.2 mL of DMEM, depending on the study (see below). For neural differentiation, N2a cells were allowed to adhere and proliferate in wells for 4 days; then, after washing once with serum-free DMEM, differentiating medium composed of DMEM containing 1% HS and 20 μM all-trans-retinoic acid (atRA) was added in both the seeding conditions, up to 6 days of differentiation, after which the cells were used for the experiments.
The MTT assay was also carried out to determine the neuroprotective effect of Fer-Ger on H2O2-induced cell oxidative stress in N2a neuronal cells. Briefly, N2a cells (5 × 10^2) were seeded and differentiated into 96-well plates, as reported above. Then, cells were incubated with 1 µM and 5 µM Fer-Ger dissolved in DMEM containing 0.5% HS for 1 h in a humidified 5% CO2 atmosphere at 37 °C. The experimental design therefore included cells incubated with only culture medium as a control and cells incubated for 24 h with 100 µM H2O2 as a damage-inducing agent after 1 h of preincubation in the absence or presence of 1 µM or 5 µM Fer-Ger. Then, 20 μL of MTT (5 mg/mL) was added into the 200 µL of the incubation medium. Four hours later, the medium containing MTT was aspirated and replaced by 100 µL of dimethyl sulfoxide (DMSO) solubilization agent for 1 h at 37 °C in an orbital shaker incubator. Finally, the absorbance of each well was measured at 570 nm using a microtiter plate reader (Sunrise® Microplate Reader, Tecan Trading AG, Männedorf, Switzerland).

[2] = tested on: neuronal differentiated N2a cells; assay: Time-course of uptake in neuronal differentiated N2a cells; assay type: cell-based, mouse
Method: as §1
The potential ability of Fer-Ger to enter the neuronal cells of the brain, where it may exert its neuroprotective effects, was evaluated in 9 days-neuronal differentiated N2a cells (5 × 10^3 cells/well in a 12-well plate) at its best non-toxic concentrations of 5 µM and 10 µM in MTT. For their optimal dissolution, 5 µM and 10 µM Fer-Ger solutions in DPBS containing 0.1% BSA were kept for 30 min at 37 °C before the uptake experiment. Each of the 12-well plates was rinsed once with 1 mL of DPBS, and then 1 mL of 5 µM and 10 µM Fer-Ger was added to the test wells, and the plate was incubated for pre-determined interval times (5, 15, 30, and 60 min) in a humidified 5% CO2 atmosphere at 37 °C. The incubation was stopped at each time by taking the incubation DPBS from each well and storing it in Eppendorf tubes. […] The final number of cells was evaluated on untreated wells following their trypsinization and counted using the Scepter^TM 2.0 automated cell counter (Merck Millipore, Milan, Italy). Each reported value represents the mean of four independent incubation experiments.

[3] = Kinetic analysis (stability) in Tris-HCl buffer; assay type: physicochemical; details: Tris-HCl buffer pH 7.4 (with MeOH 70:30), 37 °C, three hours, 20 µM
Method: Kinetic analysis of Fer-Ger was performed by its incubation at 20 µM (6.61 µg/mL) final concentration and at 37 °C in 30 mL of a mixture of Tris-HCl buffer 50 mM (pH 7.4) and MeOH 70:30 (v/v). […] All the values were derived from the mean of three independent incubation experiments.
Fer-Ger and its hydrolysis product, Ger, were quantified by HPLC. The chromatographic apparatus consisted of a modular system (model LC-40D) pump and DAD detector (model SPD-M40, Shimadzu, Kyoto, Japan) and an injection valve with a 20 μL sample loop (model 7725; Rheodyne, IDEX, Torrance, CA, USA).

[4] = Hydrolysis in rat liver homogenates of free or SLM-encapsulated Fer-Ger; assay type: in vitro ADME
Method: Since SLMs were suspended in the medium, it was difficult to withdraw several homogeneous samples, and consequently, stability was assessed by a single sampling after 10 min of incubation. Dichloromethane (1 mL) was added, and 250 μL was withdrawn from the samples and quenched in 500 μL of ice-cold ethanol added with 100 μL of internal standard (100 μM carbazole dissolved in ethanol). After 5 min of centrifugation at 16,000× g, 600 μL aliquots were reduced to dryness under a nitrogen stream. […] The same procedure was adopted for free Fer-Ger by adding appropriate amounts of stock solution in DMSO to a volume of 3 mL of rat liver homogenates in order to obtain the final concentration of 30 µM (9.92 µg/mL). In this case, the Fer-Ger hydrolysis was analyzed both in the absence or in the presence of unloaded Ts SLMs or Ts-glu SLMs, whose amounts were equivalent to those of their parent-loaded FG Ts SLMs or FG Ts-glu SLMs, respectively. All the values obtained are the means of four independent experiments.

[5] = Hydrolysis kinetics in rat liver homogenates; assay type: in vitro ADME
Method: Livers were obtained from male Wistar rats, which were sacrificed by decapitation, after a slight isoflurane anesthesia. The livers were immediately isolated, and, after washing with ice-cold saline solution, they were homogenized in 4 volumes (w/v) of Tris HCl (50 mM, pH 7.4, 4 °C) by using a Potter–Elvehjem apparatus. The supernatant obtained after centrifugation (2000× g for 10 min at 4 °C) was decanted off and stored at −80 °C before its use for kinetic studies.
Kinetic analysis of Fer-Ger was performed by its incubation at 37 °C in 3 mL of rat liver or brain homogenates at 30 µM (9.92 µg/mL) final concentration. At defined time intervals, 100 μL of homogenates were withdrawn and immediately treated by quenching them in EtOH (250 µL), then an internal standard (100 μM carbazole dissolved in EtOH, 50 µL) was added. The samples were centrifuged (13,500× g for 10 min), and the 300 μL aliquots were reduced to dryness under a nitrogen stream. […]
The Fer-Ger degradation in whole blood or homogenates was analyzed as exponential decay plots of its concentrations versus incubation time, and the related half-life values were obtained from the linear regression of the corresponding semi-logarithmic plots. The quality of the fits was evaluated by considering the correlation coefficients (r) and p values. […]
Fer-Ger and its hydrolysis product, Ger, were quantified by HPLC. […]

hydrolysis by neuronal cells (Ger detection intra- and extracellular) ([2]; N2a cells, 5 and 10 μM, up to 60 min): not hydrolyzed by neuronal cells
degradation in Tris-HCl buffer [3]: not degraded
hydrolysis rate in the presence of unloaded SLMs ([4]; free Fer-Ger in rat liver homogenates with unloaded SLMs): substantially unaffected
prodrug hydrolyzed ([4]; free solubilized prodrug, 10 min incubation in rat liver homogenates, about 30 μM): about 90%
time to complete hydrolysis [5]: about 30 min
half-life at 30 µM ([5]; male, Wistar, liver homogenate, pH 7.4, 37 °C, 30 µM, pseudo-first-order kinetic): 3.94 ± 0.33 min
SMILES: COc1cc(/C=C/C(=O)OC/C=C(\C)CCC=C(C)C)ccc1O [Fer-Ger, Geranyl ferulate]
prevention of H2O2-induced cell viability damage ([1]; 1 µM Fer-Ger preincubated 1 h): fully prevented
prevention of H2O2-induced cell viability damage ([1]; 5 µM Fer-Ger preincubated 1 h): fully prevented
intracellular concentration (cellular uptake), saturation ([2]; 5 μM Fer-Ger in DPBS, within 60 min, 37 °C): 18.36 ± 2.52 ng/5 × 10^4 cells
intracellular concentration (cellular uptake) ([2]; 5 μM Fer-Ger in DPBS, within the first 5 min of incubation, 37 °C): 9.46 ± 0.98 ng/5 × 10^4 cells
intracellular concentration (cellular uptake), steady state ([2]; 10 μM Fer-Ger in DPBS, within 60 min, 37 °C): 46.73 ± 2.25 ng/5 × 10^4 cells
intracellular concentration (cellular uptake) ([2]; 10 μM Fer-Ger in DPBS, within the first 5–15 min of incubation, 37 °C): 36.83 ± 1.65 ng/5 × 10^4 cells
